Test results as given in publication PMC4215638, “J-147 a Novel Hydrazide Lead Compound to Treat Neurodegeneration: CeeTox™ Safety and Genotoxicity Analysis” (Journal of neurology & neurophysiology, 2013).

Key:
[1] = Microsomal metabolic stability; type: in vitro ADME; conditions: 30 minutes at 37°C, rat microsomes
Description: Metabolic stability was conducted using pooled microsomes from non-induced male Sprague-Dawley rats. J-147 was incubated for 30 minutes at 37°C at concentrations of 1 μM. Subsequent HPLC analysis using a Waters Alliance 2795 in combination with a Waters Quattro Premier mass spectrometer measured disappearance of the parent molecule. The compounds were run on a Waters X-BridgeC18 (186003021) 50 × 2.1 mm column with 3.5 micron particle packing at a flow rate of 1 ml/min and with the temperature maintained at 50°C. Solvent A was water with 0.1% formic acid. Solvent B was acetonitrile with 0.07% formic acid. The data for 3 replicates are expressed as percent of parent remaining.

dopamine transporter = test system: dopamine transporter; design: method as in PMID 23673233; conditions: read-out: EC50 dopamine transporter inhibition; cited from earlier work
AD mouse = test system: AD mouse; design: method as in PMID 23673233; conditions: cited from earlier work
MAOB = test system: MAOB; design: method as in PMID 23673233; conditions: read-out: EC50 MAOB inhibition; cited from earlier work

Q: With `COc1cccc(/C=N/N(C(=O)C(F)(F)F)c2ccc(C)cc2C)c1` [J-147, (E)-N-(2,4-Dimethylphenyl)-2,2,2-trifluoro-N′-(3-methoxybenzylidene) acetohydrazide] as the compound, how does the “Metabolism Ranking” value ([1]; 1 μM) read?
A: The value was “High (<45=high)”.

Q: And the remaining at 0.5 h, 1 μM ([1]; male, Sprague-Dawley, pooled microsomes from non-induced rats, percent of parent remaining)?
A: The remaining at 0.5 h, 1 μM was 12%.

Q: And the EC50 (dopamine transporter)?
A: The EC50 was 0.65 µM.

Q: What about the “Safety and memory impairment after chronic administration” value (AD mouse) of the same compound?
A: The value was “safe and beneficial to reduce memory impairment”.

Q: And the EC50 (MAOB)?
A: The EC50 was 1.88 µM.
